Patent US8158580B2, “Pharmaceutical compositions containing a glycopeptide antibiotic and a cyclodextrin” (Theravance, Inc., priority 2000, dated 2012)
Read-outs that look alike come from different tables or passages of the source.

Conditions: female rats; for BUN / Creatinine: 50 mg/kg intravenous infusion, serum at 24 hours; for % Recovered (as unchanged parent) Kidney / % Recovered (as unchanged parent) Liver / % Recovered (as unchanged parent) Urine / Serum Conc.: 2-minute intravenous infusion, 24 hours, Mean (SD)
Method: Female Sprague-Dawley rates (three per group) were dosed with Compound A (50 mg/kg) formulated in either hydroxypropyl-β-cyclodextrin or 5% dextrose/water or vehicle. The indicated doses were administered in a volume of 10 mL/kg via a 2-minute intravenous infusion. At 24 hours, the animals were sacrificed and serum and tissue samples collected.

[1] = formulation 1% (w/v) CD (hydroxypropyl-β-cyclodextrin)
[2] = formulation 1% CD (hydroxypropyl-β-cyclodextrin), 50 mg/kg
[3] = formulation 5% (w/v) CD (hydroxypropyl-β-cyclodextrin)
[4] = formulation 5% CD (hydroxypropyl-β-cyclodextrin), 50 mg/kg
[5] = formulation 25% (w/v) CD (hydroxypropyl-β-cyclodextrin)
[6] = formulation 25% CD (hydroxypropyl-β-cyclodextrin), 50 mg/kg
[7] = formulation D5W (aqueous 5% dextrose solution, no cyclodextrin)
[8] = formulation D5W (aqueous 5% dextrose solution, no cyclodextrin), 50 mg/kg
[9] = formulations containing a cyclodextrin compared with formulation without, 50 mg/kg

## CCCCCCCCCCNCCNC1(C)CC(OC2C(Oc3c4cc5cc3Oc3ccc(cc3Cl)C(O)C3NC(=O)C(NC(=O)C5NC(=O)C(CC(N)=O)NC(=O)C(NC(=O)C(CC(C)C)NC)C(O)c5ccc(c(Cl)c5)O4)c4ccc(O)c(c4)-c4c(cc(O)c(CNCP(=O)(O)O)c4O)C(C(=O)O)NC3=O)OC(CO)C(O)C2O)OC(C)C1O (centres unmarked) [Compound A]
[1]
  BUN: 26 ± 5 mg/dL
  Creatinine: 0.34 ± 0.08 mg/dL
[2]
  % Recovered (as unchanged parent) Kidney: 5.68 (2.49) %
  % Recovered (as unchanged parent) Liver: 8.47 (0.46) %
  % Recovered (as unchanged parent) Urine: 17.45 (6.92) %
  Serum Conc.: 17.1 (12.1) μg/mL
[3]
  BUN: 18 ± 5 mg/dL
  Creatinine: 0.31 ± 0.07 mg/dL
[4]
  % Recovered (as unchanged parent) Kidney: 2.08 (0.43) %
  % Recovered (as unchanged parent) Liver: 4.89 (0.81) %
  % Recovered (as unchanged parent) Urine: 40.51 (18.57) %
  Serum Conc.: 1.66 (0.33) μg/mL
[5]
  BUN: 13 ± 2 mg/dL
  Creatinine: 0.26 ± 0.02 mg/dL
[6]
  % Recovered (as unchanged parent) Kidney: 0.62 (0.12) %
  % Recovered (as unchanged parent) Liver: 1.90 (0.32) %
  % Recovered (as unchanged parent) Urine: 90.91 (8.39) %
  Serum Conc.: 0.86 (0.19) μg/mL
[7]
  BUN: 67 ± 2 mg/dL
  Creatinine: 0.72 ± 0.08 mg/dL
[8]
  % Recovered (as unchanged parent) Kidney: 17.82 (4.94) %
  % Recovered (as unchanged parent) Liver: 14.19 (3.41) %
  % Recovered (as unchanged parent) Urine: 12.61 (4.60) %
  Serum Conc.: 59.8 (27.1) μg/mL
[9]
  liver and kidney accumulation: significantly lower
  urinary recovery: significantly higher
